# Laboratory results from patent publication US20240261422A1, “ANTHRACYCLINE ANTIBODY CONJUGATES” (SEAGEN INC., priority 2021, published 2024).
# Where two headings read alike, the source gives them in different places.
# Columns and labels:
# [1] = system: BxPC3, PancCa; test: In vitro growth inhibition (CellTiter-Glo, 96 h), BxPC3; format: cell-based; details: for IC50: anthracycline free drugs, 96 h, read-out: IC50 (nM) BxPC3, PancCa; for IC50 (ng/mL) BxPC3, PancCa: cOKT9 ADCs, average DAR 8, 96 h
# Protocol: (§1) Cell culture of cell lines as listed in Table 2-4 in log-phase growth were seeded in 96-well plates and grown for 24 h in cell culture media containing 150 μL RPMI 1640 supplemented with 20% FBS (see Mol. Cancer Ther., 2016, 15(5), 938-945 and Mol. Cancer Ther., 2018, 17(8), 1752-1760). Serial dilutions of free drugs or antibody-drug conjugates (final concentration between 0.004 nM and 1 μM) in cell culture media were prepared at 4× working concentrations; 50 μL of each dilution was added to the 96-well plates. Following addition of the drug or ADC, the cells were incubated with test articles (free drugs or ADCs) for 4 d at 37° C. After 96 h, growth inhibition was assessed by CellTiter-Glo® (Promega, Madison, WI) and luminescence was measured on a plate reader (brand, model).
# (§2) Cells were treated for 96 hours with anthracycline analogues listed in Table 2, and then assessed for viability as described in the procedures as described above. […] ND denotes value not determined with that assay for the specified compound.
# (§3) ADCs were prepared by full reduction of interchain disulfides to reveal 8-conjugatable cysteines/antibody, and subsequent alkylation with the maleimide-containing drug-linkers (Compounds 14, 18, 21, 24, 29, 32, 33, 34, and 48) according to the procedures described in Mol. Cancer Ther. 2018, 17(8). 1752-1760. Conjugates of antibody cOKT9 were prepared with anthracycline linkers. Cancer cell lines were treated with cOKT9 ADCs (average DAR of 8:1) for 96 h and then assessed for viability. […] ND denotes value not determined with that assay for the specified compound.
# [2] = system: L540cy, HL; test: In vitro growth inhibition (CellTiter-Glo, 96 h), L540cy; format: cell-based; details: for IC50: anthracycline free drugs, 96 h, read-out: IC50 (nM) L540cy, HL
# Protocol: as §1, §2, §3
# (§4) Anti-CD30 ADCs comprising cAC10 antibody conjugated to drug-linkers 24, 32, 29, 18, 14, and 48 with an average DAR of 4 were prepared for evaluation on a CD30-expressing lymphoma cell line panel. […] Anti-CD30 conjugates bearing the PNU linkers 24, 32, 29, 18, and 14 were active on L540cy, DEL, and Karpas299 lymphoma cell lines, and conjugate 48 was active on L540cy and DEL cell lines, with IC50s ranging from 0.2-4 ng/mL.
# [3] = system: L540cy, 786-O, BxPC3, HL60, HL60/RV; details: for change of potency relative to the parent compound: comparison in words; for IC50s of cOKT9 conjugates: 24 h
# [4] = system: 786-O, MDR + RCC; test: In vitro growth inhibition (CellTiter-Glo, 96 h), 786-O; format: cell-based; details: for IC50: 96 h; for IC50 (ng/mL) 786-O, MDR + RCC: cOKT9 ADCs, average DAR 8, 96 h
# Protocol: as §1, §2, §3
# [5] = system: HL60/RV, MDR + AML; test: In vitro growth inhibition (CellTiter-Glo, 96 h), HL60/RV; format: cell-based; details: for IC50: read-out: IC50 (nM) HL60/RV, MDR + AML; for IC50 (ng/mL) HL60/RV, MDR + AML: cOKT9 ADCs, average DAR 8, 96 h
# Protocol: as §1, §2, §3
# [6] = system: HL60, AML; test: In vitro growth inhibition (CellTiter-Glo, 96 h), HL60; format: cell-based; details: for IC50: read-out: IC50 (nM) HL60, AML; for IC50 (ng/mL) HL60, AML: cOKT9 ADCs, average DAR 8, 96 h
# Protocol: as §1, §2, §3
# [7] = system: L428, MDR + HL; test: In vitro growth inhibition (CellTiter-Glo, 96 h), L428; format: cell-based; details: cAC10 (anti-CD30) ADCs, average DAR 4
# Protocol: as §1, §4
# [8] = system: DEL, ALCL; test: In vitro growth inhibition (CellTiter-Glo, 96 h), DEL; format: cell-based; details: cAC10 (anti-CD30) ADCs, average DAR 4
# Protocol: as §1, §4
# [9] = system: Ramos, CD30 − NHL; test: In vitro growth inhibition (CellTiter-Glo, 96 h), Ramos; format: cell-based; details: cAC10 (anti-CD30) ADCs, average DAR 4
# Protocol: as §1, §4
# [10] = system: Karpas299, ALCL; test: In vitro growth inhibition (CellTiter-Glo, 96 h), Karpas299; format: cell-based; details: cAC10 (anti-CD30) ADCs, average DAR 4
# Protocol: as §1, §4
# [11] = Homo sapiens, 786-0, anthracycline free drugs, read-out: IC50 (nM) 786-O, MDR + RCC
# [12] = cOKT9 ADCs, average DAR 8, 96 h
# [13] = cOKT9 ADCs DAR 8, result in words
# [14] = cAC10 (anti-CD30) ADCs, average DAR 4
compound,measurement,setting,value
"COc1cccc2c1C(=O)c1c(O)c3c(c(O)c1C2=O)C[C@@](O)(C(=O)O)C[C@@H]3O[C@H]1C[C@H](N2CCO[C@H](OC)C2)[C@H](O)[C@H](C)O1 [Compound 4, (2S,4S)-2,5,12-trihydroxy-4-(((2R,4S,5S,6S)-5-hydroxy-4-((S)-2-methoxymorpholino)-6-methyltetrahydro-2H-pyran-2-yl)oxy)-7-methoxy-6,11-dioxo-1,2,3,4,6,11-hexahydrotetracene-2-carboxylic acid]",IC50,"[1]; Homo sapiens, BXPC-3",10 to 100 nM
same,IC50,[2]; L540cy,10 to 100 nM
same,change of potency relative to the parent compound,[3]; free drugs,lost roughly one order of magnitude in potency
same,IC50,[4]; [11],10 to 100 nM
"COc1cccc2c1C(=O)c1c(O)c3c(c(O)c1C2=O)C[C@@](O)(C(=O)CO)C[C@@H]3O[C@H]1C[C@H]2[C@H](O[C@@H]3[C@@H](OC)OCCN32)[C@H](C)O1 [Compound 5, PNU-159682, reference compound]",IC50,"[5]; anthracycline free drugs, 96 h",< 10 nM
same,IC50,[1],< 10 nM
same,IC50,[2],< 10 nM
same,IC50,"[3]; read-out: IC50 values on the cancer lines tested, free drugs, 96 h, value or range over the cell lines tested",~0.01 nM
same,IC50,"[4]; anthracycline free drugs, read-out: IC50 (nM) 786-O, MDR + RCC",< 10 nM
same,IC50,"[4]; free drug, read-out: IC50 value, 786-0",< 0.004 nM
same,IC50,"[6]; anthracycline free drugs, 96 h",< 10 nM
"COc1cccc2c1C(=O)c1c(O)c3c(c(O)c1C2=O)C[C@@](O)(C(=O)NCCN)C[C@@H]3O[C@H]1C[C@H]2[C@H](O[C@@H]3[C@@H](OC)OCCN32)[C@H](C)O1 [Compound 9, (2S,4S)—N-(2-aminoethyl)-2,5,12-trihydroxy-7-methoxy-4-(((1S,3R,4aS,9S,9aR,10aS)-9-methoxy-1-methyloctahydro-1H-pyrano[4′,3′:4,5]oxazolo[2,3-c][1,4]oxazin-3-yl)oxy)-6,11-dioxo-1,2,3,4,6,11-hexahydrotetracene-2-carboxamide]",IC50,"[5]; Homo sapiens, HL-60, 96 h",100 to 1000 nM
same,IC50,"[1]; Homo sapiens, BXPC-3",< 10 nM
same,IC50,[2]; L540cy,< 10 nM
same,change of potency relative to the parent compound,[3]; free drugs,increased potency in 4 of 5 cell lines
same,IC50,[4]; [11],< 10 nM
same,IC50,"[6]; Homo sapiens, HL-60, 96 h",< 10 nM
"COc1cccc2c1C(=O)c1c(O)c3c(c(O)c1C2=O)C[C@@](O)(C(=O)NCCOCCOCCOCCOCCNC(=O)CCN1C(=O)C=CC1=O)C[C@@H]3O[C@H]1C[C@H]2[C@H](O[C@@H]3[C@@H](OC)OCCN32)[C@H](C)O1 [Compound 21, (2S,4S)—N-(18-(2,5-dioxo-2,5-dihydro-1H-pyrrol-1-yl)-16-oxo-3,6,9,12-tetraoxa-15-azaoctadecyl)-2,5,12-trihydroxy-7-methoxy-4-(((1S,3R,4aS,9S,9aR,10aS)-9-methoxy-1-methyloctahydro-1H-pyrano[4′,3′:4,5]oxazolo[2,3-c][1,4]oxazin-3-yl)oxy)-6,11-dioxo-1,2,3,4,6,11-hexahydrotetracene-2-carboxamide]","IC50 (ng/mL) HL60/RV, MDR + AML",[5],D (IC50≥1000 ng/mL)
same,"IC50 (ng/mL) BxPC3, PancCa",[1],A (IC50<10 ng/mL)
same,"IC50 (ng/mL) L540cy, HL",[2]; [12],A (IC50<10 ng/mL)
same,IC50s of cOKT9 conjugates,[3],1 to 150 ng/mL
same,"IC50 (ng/mL) 786-O, MDR + RCC",[4],A (IC50<10 ng/mL)
same,"IC50 (ng/mL) HL60, AML",[6],C (100 ng/mL≤IC50<1000 ng/mL)
"COc1cccc2c1C(=O)c1c(O)c3c(c(O)c1C2=O)C[C@@](O)(C(=O)NCCNC(=O)OCc1ccc(NC(=O)[C@H](C)NC(=O)[C@@H](NC(=O)CCN2C(=O)C=CC2=O)C(C)C)cc1)C[C@@H]3O[C@H]1C[C@H]2[C@H](O[C@@H]3[C@@H](OC)OCCN32)[C@H](C)O1 [Compound 24, 4-((S)-2-((S)-2-(3-(2,5-dioxo-2,5-dihydro-1H-pyrrol-1-yl)propanamido)-3-methylbutanamido)propanamido)benzyl (2-((2S,4S)-2,5,12-trihydroxy-7-methoxy-4-(((1S,3R,4aS,9S,9aR,10aS)-9-methoxy-1-methyloctahydro-1H-pyrano[4′,3′:4,5]oxazolo[2,3-c][1,4]oxazin-3-yl)oxy)-6,11-dioxo-1,2,3,4,6,11-hexahydrotetracene-2-carboxamido)ethyl)carbamate]","IC50 (ng/mL) L428, MDR + HL",[7],E (IC50≥500 ng/mL)
same,activity of cOKT9 conjugates on multidrug resistant HL60/RV,[5]; [13],active
same,"IC50 (ng/mL) HL60/RV, MDR + AML",[5],B (10 ng/mL≤IC50<100 ng/mL)
same,"IC50 (ng/mL) BxPC3, PancCa",[1],A (IC50<10 ng/mL)
same,"IC50 (ng/mL) L540cy, HL",[2]; [14],B (1 ng/mL≤IC50<10 ng/mL)
same,"IC50 (ng/mL) L540cy, HL",[2]; [12],A (IC50<10 ng/mL)
same,"IC50 (ng/mL) DEL, ALCL",[8],A (IC50<1 ng/mL)
same,IC50s of cOKT9 conjugates,[3],1 to 150 ng/mL
same,"IC50 (ng/mL) 786-O, MDR + RCC",[4],B (10 ng/mL≤IC50<100 ng/mL)
same,"IC50 (ng/mL) Ramos, CD30 − NHL",[9],D (100 ng/mL≤IC50<500 ng/mL)
same,"IC50 (ng/mL) HL60, AML",[6],B (10 ng/mL≤IC50<100 ng/mL)
same,"IC50 (ng/mL) Karpas299, ALCL",[10],B (1 ng/mL≤IC50<10 ng/mL)
"COc1cccc2c1C(=O)c1c(O)c3c(c(O)c1C2=O)C[C@@](O)(C(=O)NCCNC(=O)CCN1C(=O)C=CC1=O)C[C@@H]3O[C@H]1C[C@H](N2CCO[C@H](OC)C2)[C@H](O)[C@H](C)O1 [Compound 34, (2S,4S)—N-(2-(3-(2,5-dioxo-2,5-dihydro-1H-pyrrol-1-yl)propanamido)ethyl)-2,5,12-trihydroxy-4-(((2R,4S,5S,6S)-5-hydroxy-4-((S)-2-methoxymorpholino)-6-methyltetrahydro-2H-pyran-2-yl)oxy)-7-methoxy-6,11-dioxo-1,2,3,4,6,11-hexahydrotetracene-2-carboxamide]","IC50 (ng/mL) BxPC3, PancCa",[1],D (IC50≥1000 ng/mL)
same,"IC50 (ng/mL) L540cy, HL",[2]; [12],D (IC50≥1000 ng/mL)
same,activity of cOKT9 conjugates across the panel of cancer cell lines,[3]; [13],inactive
same,"IC50 (ng/mL) 786-O, MDR + RCC",[4],D (IC50≥1000 ng/mL)
"COc1cccc2c1C(=O)c1c(O)c3c(c(O)c1C2=O)C[C@@](O)(C(=O)NCCNC(=O)CNC(=O)[C@H](C)NC(=O)[C@@H](NC(=O)CCN1C(=O)C=CC1=O)C(C)C)C[C@@H]3O[C@H]1C[C@H]2[C@H](O[C@@H]3[C@@H](OC)OCCN32)[C@H](C)O1 [Compound 48, (2S,4S)—N-((8S,11S)-15-(2,5-dioxo-2,5-dihydro-1H-pyrrol-1-yl)-11-isopropyl-8-methyl-4,7,10,13-tetraoxo-3,6,9,12-tetraazapentadecyl)-2,5,12-trihydroxy-7-methoxy-4-(((1S,3R,4aS,9S,9aR,10aS)-9-methoxy-1-methyloctahydro-1H-pyrano[4′,3′:4,5]oxazolo[2,3-c][1,4]oxazin-3-yl)oxy)-6,11-dioxo-1,2,3,4,6,11-hexahydrotetracene-2-carboxamide]","IC50 (ng/mL) BxPC3, PancCa",[1],A (IC50<10 ng/mL)
same,"IC50 (ng/mL) L540cy, HL",[2]; [14],A (IC50<1 ng/mL)
same,"IC50 (ng/mL) L540cy, HL",[2]; [12],A (IC50<10 ng/mL)
same,"IC50 (ng/mL) DEL, ALCL",[8],A (IC50<1 ng/mL)
same,IC50s of cOKT9 conjugates,[3],1 to 150 ng/mL
same,"IC50 (ng/mL) 786-O, MDR + RCC",[4],B (10 ng/mL≤IC50<100 ng/mL)
